The test system of this test is CEM cells HIV-1 protection, formazan growth assay. The experiment in a line: NCI AIDS Antiviral Assay. The conditions noted are these: for IC50: measured here: growth of uninfected CEM cells. In outline:
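Steps: treat uninfected and HIV-1-infected human CEM cells at five drug levels; quantify growth by soluble formazan; retest any compound reaching 50% protection; classify actives from the retest.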

Activity calls are given as the source filed them.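 How the source made its calls: active means compounds giving half or more protection of infected cells from virus-caused growth loss, again on retest; inactive means the rest.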

On to `O=[N+]([O-])c1ccc(-c2csc(N=Nc3c(O)[nH]c4ccccc34)n2)cc1`, for which the EC50 – broadly, the concentration that produces a half-maximal response – turned out to be 141 µM and the IC50 (usually the point on the concentration scale where inhibition reaches its midpoint) was more than 200 µM. Regarding `CCN(N=O)C1C2(CCCC2)NC(=O)C12CCCC2` (stereo unspecified), the result was inactive. With `O=Nc1c2cc3ccccc3[nH]c-2c2ccccc12`, the EC50 is more than 40.7 µM and the 50% inhibitory concentration (IC50) was 20.4 µM.

Regarding `CCOC(=O)NN(C(=O)OCC)C(=C(C1=CCCCC1)N1CCOCC1)N(NC(=O)OCC)C(=O)OCC`, the EC50 was more than 200 µM and the 50% inhibitory concentration (IC50) is more than 200 µM. Regarding `COc1ccc(C)cc(=O)c1O`, the EC50 is more than 251 µM and the IC50 came to 14.5 µM. Consider `COC(=O)CC12CC(CC(=O)O1)N(C(=O)Nc1ccccc1)O2` (stereo unspecified), for which the EC50 was more than 77.6 µM and the half-inhibitory concentration (IC50) is more than 77.6 µM. On to `O=C1c2ccccc2C(=O)c2sc(Nc3cccc(Cl)c3)nc21`, for which the EC50 was more than 5.89 µM and the half-inhibitory concentration (IC50) was determined as 3.39 µM. For `CN(C(=O)C1=CCCCCC1)c1ccccc1Br`, the EC50 was more than 813 µM and the IC50 was determined as 389 µM. In the case of `Cc1c2c(cc3c(=O)ccn(CCN(C)C)c13)c(=O)ccn2CCN(C)C`, the EC50 is more than 135 µM and the concentration for half-maximal inhibition (IC50) came to 1 µM. Take `Cc1cc2c(C)nn(Cc3ccccc3Cl)c2c(C#N)c1C`: the EC50 was more than 23.4 µM and the IC50 was more than 23.4 µM. As for `CCCCSC(=CC(=O)c1cccc(C(=O)C=C(SCCCC)SCCCC)n1)SCCCC`, the EC50 was more than 3.72 µM and the IC50 is more than 3.72 µM. For `CNCC(=O)NC(CO)C(=O)NC1C(C(N)=O)OC(n2ccc(N)nc2=O)C(O)C1O` (stereo unspecified), the outcome was inactive.

For `Cc1cc(Cl)ccc1NC(=O)C1C(=O)N(c2ccc(Cl)cc2C)C(=O)/C1=N\NC(N)=S` (stereo unspecified), the EC50 is more than 11 µM and the IC50 is more than 11 µM. Consider `Clc1ccc(C2c3ccccc3-c3nc4ccccc4n32)cc1` (stereo unspecified), for which the EC50 is more than 200 µM and the concentration for half-maximal inhibition (IC50) was more than 200 µM. Regarding `O=C1Nc2cc([N+](=O)[O-])ccc2NC1/C(=N\Nc1ccccc1)C(O)c1cccc([N+](=O)[O-])c1` (stereo unspecified), the EC50 was more than 417 µM and the IC50 is 47.9 µM. For `COc1cc2c(cc1OC)C(Cc1ccc(OC)c(Oc3ccc(C[C@@H]4c5cc(OC)c(OC)cc5CCN4C)cc3)c1)N(C)CC2` (stereo partly specified), the result was inactive.

In the case of `COc1cccc(/C=C2\C(=O)N(C(=O)c3ccc(NC(C)=O)cc3)N=C2C)c1`, the EC50 was more than 36.3 µM and the IC50 was more than 36.3 µM. As to `C=C(C)C1CC=C(C)C(O)([C@@]2(O)C[C@H](C(=C)C)CC=C2C)C1` (stereo partly specified), the outcome was inactive. As for `C=C1C(=O)OC2CC(C)C3(O)C=C(C(C)=O)C4(OC3CC12)C(=O)OC1CC(C)C2(/C=C\C(C)=O)OC2CC14` (stereo unspecified), the EC50 was more than 479 µM and the IC50 amounted to 81.3 µM. As to `O=C(CC(O)(C(F)(F)F)C(F)(F)F)c1ccc(Cl)cc1`, the EC50 was more than 200 µM and the half-maximal inhibitory concentration (IC50) is more than 200 µM. `COc1ccc(-c2nc(-c3cc4c(ccc5ccccc54)oc3=O)cs2)cc1`: the EC50 was more than 100 µM and the IC50 is more than 100 µM. For `O=C1C(=O)C(CCCO)(CCCO)CCCCCCCCC1(CCCO)CCCO`, the EC50 is more than 200 µM and the half-inhibitory concentration (IC50) turned out to be 102 µM. For the compound `CN1CCN(CCCN2CC(=O)N3Cc4ccccc4CN3C(=O)C2)CC1`, the EC50 was more than 200 µM and the half-inhibitory concentration (IC50) is more than 200 µM. Take `CCOC(=O)c1cc(C2CCN(Cc3ccccc3)C2=O)c(C(=O)C(=[N+]=[N-])C(C)=O)[nH]1` (stereo unspecified): the EC50 was more than 200 µM and the IC50 is more than 200 µM. On to `N#CN/C(N)=N/S(=O)(=O)c1ccc([N+](=O)[O-])cc1`, for which the EC50 is more than 933 µM and the IC50 came out at 257 µM. Take `COc1ccc2oc3c(OC)c(OC)c(OC)cc3c(=O)c2c1`: the EC50 was more than 8.71 µM.

In the case of `O=C(O)c1cc(O)ccc1O`, the EC50 is more than 200 µM and the half-inhibitory concentration (IC50) is more than 200 µM. Take `Cn1c(N)c(N=Nc2ccc(S(=O)(=O)Nc3ccccn3)cc2)c(=O)n(C)c1=O`: the outcome was inactive. In the case of `CC(=O)NC(C(=O)O)(C(=O)O)C(C)CC(=O)O` (stereo unspecified), the EC50 was more than 200 µM and the IC50 is more than 200 µM.

Turning to `C=Cc1c(-c2ccccc2)cnc2[nH]c3ccccc3c12`, the EC50 is more than 13.8 µM and the IC50 is more than 13.8 µM.

On to `O=[N+]([O-])c1ccc(N2N=C(c3c(O)ccc4ccccc34)CC2c2ccc(Cl)cc2)c([N+](=O)[O-])c1` (stereo unspecified), for which the EC50 is more than 200 µM and the IC50 was 16.6 µM. Consider `NC(=O)CNC(=O)c1ccccc1SC(=O)NCCBr`, for which the 50% effective concentration (EC50) came to 2 µM and the half-maximal inhibitory concentration (IC50) worked out at 10 µM.

Regarding `O=[N+]([O-])c1ccc(Sc2c3ccccc3nc3ccccc23)nc1`, the EC50 is more than 200 µM and the half-maximal inhibitory concentration (IC50) is 5.25 µM. Turning to `O=CC1(C(O)C2SCCCS2)SCCCS1` (stereo unspecified), the EC50 is more than 100 µM and the half-maximal inhibitory concentration (IC50) was 5.5 µM. On the same counts, the results for `N#CCCN(CCC#N)c1ccc(C(=O)NN)cc1` are more than 363 µM and 288 µM. On the same counts, the results for `CC(C)(C)CC1=COC(C=O)(CC(C)(C)C)CC1` (stereo unspecified) are more than 102 µM and more than 102 µM. For the compound `COC(=O)C(/C(=N/NC(N)=O)C(=O)Nc1c(C)cccc1C(C)(C)C)c1nc2ccc(Cl)cc2[nH]c1=O` (stereo unspecified), the outcome was inactive. Consider `CN(C)Cc1cc(C(=O)/C=C/c2ccccc2Cl)cc(CN(C)C)c1O`, for which the EC50 was more than 200 µM and the IC50 was 7.24 µM.

Take `C=CCc1ccc(Oc2cc(CC=C)c3c(c2O)O[C@@H](CO)[C@H]3c2ccc(O)c(-c3cc(CC=C)ccc3O)c2)cc1`: the EC50 is more than 100 µM and the IC50 is more than 100 µM. For the compound `O=C(Nc1nc(=S)[nH][nH]1)C(=O)C1C(=O)Nc2ccccc2S1=O` (stereo unspecified), the EC50 was more than 372 µM and the IC50 was more than 372 µM. On to `N=C1N=Nc2nc(C(C(=O)c3cccc4ccccc34)c3nc4n(c3O)C(=N)N=N4)c(O)n21` (stereo unspecified), for which the EC50 is more than 200 µM and the IC50 worked out at 117 µM. For the compound `COc1ccc(C(=O)O/N=C2/CCC/C2=C\c2ccccc2)cc1`, the result was inactive. Take `CC1(Br)CN(C(=S)Nc2ccccc2)C1=O` (stereo unspecified): the EC50 was more than 200 µM and the IC50 was 97.7 µM.

For the compound `C/C=C/c1cc2c(c(=O)o1)C(=O)[C@@H](O)[C@H](C)O2`, the EC50 was more than 200 µM and the IC50 is 3.72 µM.

As to `NNC(=O)N/N=C1\C(=O)N(c2ccc(Cl)c(Cl)c2)C(=O)C(=O)C1c1nc2ccccc2s1` (stereo unspecified), the outcome was inactive. On to `COc1cc(/C=C/c2sc3ccccc3[n+]2C)ccc1N(C)C`, for which the EC50 was more than 200 µM and the IC50 turned out to be 3.24 µM. With `O=C(Cn1c2ccc(Br)cc2c2nc3ccccc3nc21)NCc1ccccc1`, the EC50 is more than 100 µM and the 50% inhibitory concentration (IC50) was more than 100 µM. For the compound `Cc1ccc(S(=O)(=O)N2CCCCCC2)cc1`, the EC50 was more than 200 µM and the 50% inhibitory concentration (IC50) is more than 100 µM. On the same counts, the results for `Cc1cccc2oc3c(c(=O)c12)CC(O)C(C)(C)O3` (stereo unspecified) are more than 200 µM and 79.4 µM.

`COC(=O)C1(C(=O)OC)CC2=C(S(=O)(=O)c3ccccc3)C[C@@H](C#N)[C@H]2C1`: the EC50 was more than 200 µM and the concentration for half-maximal inhibition (IC50) was 110 µM. As to `N/N=C(/Cc1nc2ccc(C(=O)c3ccccc3)cc2[nH]c1=O)C(=O)Nc1ccc([N+](=O)[O-])cc1[N+](=O)[O-]`, the EC50 is more than 50.1 µM and the IC50 is more than 50.1 µM.

In the case of `OC12c3ccccc3C1(N1CCOCC1)CCCCC21OCCCO1` (stereo unspecified), the EC50 is 170 µM and the IC50 is 295 µM. Consider `CON(C)C(=O)CCCO`, for which the EC50 is more than 1700 µM and the IC50 was more than 1700 µM. Take `COc1ccc(C2SCC(=O)N2NC(=O)c2ccc(NC(C)=O)cc2)c(OC)c1` (stereo unspecified): the EC50 is more than 63.1 µM and the concentration for half-maximal inhibition (IC50) is more than 63.1 µM.

Regarding `CNC(=O)Nc1ccncc1`, the EC50 is more than 200 µM and the half-maximal inhibitory concentration (IC50) was more than 200 µM. Consider `O=C1N2CCNc3ccccc3C(c3ccccc3)N1CC2` (stereo unspecified), for which the EC50 is more than 200 µM and the IC50 is 18.6 µM. Turning to `O=C(NC1CCC(CC2CCC(NC(=O)c3cc(O)c(O)c(O)c3)CC2)CC1)c1cc(O)c(O)c(O)c1` (stereo unspecified), the EC50 was more than 100 µM and the IC50 came to 10.5 µM. Regarding `CN1CCOC(c2ccc(Cl)cc2)O1` (stereo unspecified), the outcome was inactive. With `NCCCC1CCCCNC1` (stereo unspecified), the outcome was inactive. Take `CC(C)(C)C(=O)OCOP(=O)(OCOC(=O)C(C)(C)C)OCC1OC(n2cc(F)c(=O)[nH]c2=O)CC1O` (stereo unspecified): the EC50 is more than 151 µM and the IC50 amounted to 2.09 µM. Turning to `Cc1cc(C)nc(NS(=O)(=O)c2ccc(NC(=O)c3cccc4c(NNc5ccc(S(=O)(=O)N=C(N)N)cc5)c5ccccc5nc34)cc2)n1`, the EC50 was more than 100 µM and the IC50 came to 50.1 µM.

Consider `CN1NC2(CCCCC2)ON=C1c1ccccc1`, for which the outcome was inactive.

In the case of `C/C=C(/C)C(=O)O[C@@H]1c2c(C)coc2C[C@H]2CC[C@H](O)[C@H](C)[C@]21C`, the EC50 is more than 200 µM and the concentration for half-maximal inhibition (IC50) stood at 58.9 µM. In the case of `N#C[C@H](c1nc2ccccc2[nH]1)c1nc2ccccc2nc1Cl`, the EC50 was more than 200 µM and the IC50 stood at 11 µM. In the case of `COc1ccc(-c2cc(-c3ccccc3)c3c(n2)-c2ccccc2NC(=O)C3)cc1`, the EC50 is more than 200 µM and the 50% inhibitory concentration (IC50) stood at 38 µM. On to `CCCCN(CCCC)C(=O)C(=O)C(C(=O)C(=O)OC)c1nc2ccccc2o1` (stereo unspecified), for which the EC50 is more than 33.9 µM and the IC50 was more than 33.9 µM. In the case of `O=C1c2ccccc2C(Br)(Br)c2ccccc21`, the result was inactive.

Regarding `Cc1cc2c(c(=O)n1C)SCC2`, the EC50 was more than 200 µM and the half-inhibitory concentration (IC50) is more than 200 µM. In the case of `Cc1nnc2n1-c1ccc(Cl)cc1C(c1ccccc1)=[N+]([O-])C2`, the EC50 is more than 398 µM and the IC50 was found to be 355 µM. In the case of `CCOC(=O)c1c(Br)c(-c2ccc(Br)cc2)c(Br)n1C`, the EC50 is more than 100 µM and the IC50 is 43.7 µM. Turning to `c1cnn(P2(n3cccn3)=NP(n3cccn3)(n3cccn3)=NP(n3cccn3)(n3cccn3)=NP(n3cccn3)(n3cccn3)=NP(n3cccn3)(n3cccn3)=NP(n3cccn3)(n3cccn3)=N2)c1`, the EC50 is more than 200 µM and the IC50 is more than 200 µM. `COc1ccc(/C=C2/C(=O)N=C(NC(C)=O)N2C)cc1OC`: the EC50 is more than 200 µM and the 50% inhibitory concentration (IC50) was more than 200 µM.

(Values after PubChem BioAssay AID179 (DTP/NCI, 2004).)
